Patent US10647688B2, “Compounds, synthesis method thereof and use of same in medicine and in cosmetics” (GALDERMA RESEARCH & DEVELOPMENT, priority 2014, dated 2020)

Experiments:
Assay type in all cases: cell-based
RARγ = biological target: T1, RARγ (Homo sapiens, UniProt P13631); experiment: Transactivation reporter test (luciferase) in HeLa ERE Luc-hRAR cells, RARγ; settings: for EC50: HeLa ERE Luc-hRAR cells, dose-response 10000 nM-0.04 nM, 18 hours incubation; for RARγ Comments: agonist type (total/partial); for RARγ Efficacy (%): normalized to basal control and maximum efficacy control CD0193 100 nM
T1 construct: expressed in transfected cells; line from Prof; Ballaguer, INSERM 439, Montpellier
T1 sequence (P13631 185-419 limits assumed): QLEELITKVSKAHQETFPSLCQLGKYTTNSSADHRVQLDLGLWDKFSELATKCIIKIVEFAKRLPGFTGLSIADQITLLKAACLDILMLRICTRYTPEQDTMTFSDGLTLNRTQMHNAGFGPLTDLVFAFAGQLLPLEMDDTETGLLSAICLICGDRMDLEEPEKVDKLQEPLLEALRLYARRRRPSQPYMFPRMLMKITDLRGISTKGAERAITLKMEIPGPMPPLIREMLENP
Description: (§1) The activity of our molecules on the RAR is measured using a recombinant line expressing the ligand-biding domain (LBD) of RAR fused with the DNA binding domain (DBD) of the estrogen receptors. The specific transactivation of the receptor on the receptor estrogen response element (ERE) leads to transcription of luciferase. The expression of this reporter gene is quantified by luminescence after addition of its substrate, luciferin.
(§2) This line was produced by Prof. Ballaguer (INSERM 439, Montpellier) after stable transfection of HeLa by ERE-βGlob-Luc-SV-Neo and RAR(α, β, γ)-ER-DBD-puro plasmids.
(§3) The compounds are evaluated by dose-response (10000 nM-0.04 nM) normalized relative to a basal control and a maximum efficacy control (CD0193, reference agonist with 100 nM saturating concentration): Y=((X−0%)/(100%−0%))*100.
(§4) The affinity (EC50 in nM) and efficacy (in %) are measured using the XLfit (IDBS) software according to a four-parameter nonlinear regression (model 205).
(§5) HeLa ERE Luc-hRAR cells are inoculated on 96 well microplates (10,000 cell/100 μL). After 4 hours of incubation at 37° C./5% CO2, they are treated with 5 μL of 20× products (0.1 final DMSO).

RARβ = biological target: T2, RARβ (Homo sapiens, UniProt P10826); experiment: Transactivation reporter test (luciferase) in HeLa ERE Luc-hRAR cells, RARβ; settings: for EC50: HeLa ERE Luc-hRAR cells, dose-response 10000 nM-0.04 nM, 18 hours incubation; for RARβ Comments: agonist type (total/partial); for RARβ Efficacy (%): normalized to basal control and maximum efficacy control CD0193 100 nM
T2 construct: expressed in transfected cells; line from Prof; Ballaguer, INSERM 439, Montpellier
T2 sequence (P10826 183-417 limits assumed): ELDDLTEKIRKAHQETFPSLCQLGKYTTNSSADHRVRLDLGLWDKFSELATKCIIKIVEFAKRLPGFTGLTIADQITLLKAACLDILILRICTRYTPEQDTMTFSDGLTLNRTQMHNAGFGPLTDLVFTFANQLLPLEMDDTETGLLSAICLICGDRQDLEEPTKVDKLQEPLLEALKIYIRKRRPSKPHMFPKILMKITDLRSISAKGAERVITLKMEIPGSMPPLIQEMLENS
Description: as §1, §2, §3, §4, §5

RARα = biological target: T3, RARα (Homo sapiens, UniProt P10276); experiment: Transactivation reporter test (luciferase) in HeLa ERE Luc-hRAR cells, RARα; settings: for EC50: HeLa ERE Luc-hRAR cells, dose-response 10000 nM-0.04 nM, 18 hours incubation; for RARα Comments: agonist type (total/partial); for RARα Efficacy: normalized to basal control and maximum efficacy control CD0193 100 nM
T3 construct: expressed in transfected cells; line from Prof; Ballaguer, INSERM 439, Montpellier
T3 sequence (P10276 183-417 limits assumed): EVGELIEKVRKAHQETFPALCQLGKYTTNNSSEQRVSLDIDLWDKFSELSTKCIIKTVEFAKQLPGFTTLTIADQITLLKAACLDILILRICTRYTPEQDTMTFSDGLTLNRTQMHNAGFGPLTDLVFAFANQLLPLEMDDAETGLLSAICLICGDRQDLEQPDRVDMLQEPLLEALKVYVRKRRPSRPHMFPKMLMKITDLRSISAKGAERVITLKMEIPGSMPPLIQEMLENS
Description: as §1, §2, §3, §4, §5

CCCOc1ccc(-c2cnc(-c3ccc(C(=O)O)cc3)s2)cc1C1(C)CCCCC1 [4-{5-[3-(1-methyl-cyclohexyl)-4-propoxy-phenyl]-thiazol-2-yl}-benzoic acid]
EC50 (RARγ): 1.03 µM | RARγ Comments (RARγ): Total | RARγ Efficacy (%) (RARγ): 74% | EC50 (RARβ): 0.635 µM | RARβ Comments (RARβ): Total agonist | RARβ Efficacy (%) (RARβ): 90% | EC50 (RARα): 3.17 µM | RARα Comments (RARα): Total | RARα Efficacy (RARα): 68%

CCOCOc1ccc(-c2noc(-c3ccc(C(=O)O)cc3)n2)cc1C(C)(C)C [4-[3-(3-tert-butyl-4-ethoxymethoxy-phenyl)-[1,2,4]oxadiazol-5-yl]-benzoic acid]
EC50 (RARγ): 0.01 µM | RARγ Comments (RARγ): Total | RARγ Efficacy (%) (RARγ): 88% | EC50 (RARβ): 0.0062 µM | RARβ Comments (RARβ): Total agonist | RARβ Efficacy (%) (RARβ): 95% | EC50 (RARα): 0.65 µM | RARα Comments (RARα): Total | RARα Efficacy (RARα): 104%

CC(C)(C)c1cc(-c2noc(-c3ccc(C(=O)O)cc3)n2)ccc1O [4-[3-(3-tert-butyl-4-hydroxy-phenyl)-[1,2,4]oxadiazol-5-yl]-benzoic acid]
EC50 (RARγ): 0.0024 µM | RARγ Comments (RARγ): Total | RARγ Efficacy (%) (RARγ): 110% | EC50 (RARβ): 0.003 µM | RARβ Comments (RARβ): Total agonist | RARβ Efficacy (%) (RARβ): 110% | EC50 (RARα): 0.107 µM | RARα Comments (RARα): Total | RARα Efficacy (RARα): 106%

CCOCOc1ccc(-c2noc(-c3ccc(C(=O)O)cc3)n2)cc1C1(C)CCCCC1 [4-{3-[4-ethoxymethoxy-3-(1-methyl-cyclohexyl)-phenyl]-[1,2,4]oxadiazol-5-yl}-benzoic acid]
EC50 (RARγ): 0.0009 µM | RARγ Comments (RARγ): Total | RARγ Efficacy (%) (RARγ): 102% | EC50 (RARβ): 0.00056 µM | RARβ Comments (RARβ): Total agonist | RARβ Efficacy (%) (RARβ): 107% | EC50 (RARα): 0.09 µM | RARα Comments (RARα): Total | RARα Efficacy (RARα): 80%

CC1(C)CCC(C)(C)c2cc(-c3cnc(-c4ccc(C(=O)O)cc4)s3)ccc21 [4-[5-(5,5,8,8-tetramethyl-5,6,7,8-tetrahydro-naphthalen-2-yl)-thiazol-2-yl]-benzoic acid]
EC50 (RARγ): 0.162 µM | RARγ Comments (RARγ): Total | RARγ Efficacy (%) (RARγ): 78% | EC50 (RARβ): 0.052 µM | RARβ Comments (RARβ): Total agonist | RARβ Efficacy (%) (RARβ): 110% | EC50 (RARα): 9.79 µM | RARα Comments (RARα): Total | RARα Efficacy (RARα): 64%

COc1ccc(-c2cnc(-c3ccc(C(=O)O)cc3)s2)cc1C(C)(C)C [4-[5-(3-tert-butyl-4-methoxy-phenyl)-thiazol-2-yl]-benzoic acid]
EC50 (RARγ): 0.066 µM | RARγ Comments (RARγ): partial agonist | RARγ Efficacy (%) (RARγ): 40% | EC50 (RARβ): 0.164 µM | RARβ Comments (RARβ): partial agonist | RARβ Efficacy (%) (RARβ): 46% | EC50 (RARα): 0.109 µM | RARα Comments (RARα): partial agonist | RARα Efficacy (RARα): 53%

CCOc1ccc(-c2noc(-c3ccc(C(=O)O)cc3)n2)cc1C(C)(C)C [4-[3-(3-tert-butyl-4-ethoxy-phenyl)-[1,2,4]oxadiazol-5-yl]-benzoic acid]
EC50 (RARγ): 0.0093 µM | RARγ Comments (RARγ): Total | RARγ Efficacy (%) (RARγ): 96% | EC50 (RARβ): 0.0038 µM | RARβ Comments (RARβ): Total agonist | RARβ Efficacy (%) (RARβ): 92% | EC50 (RARα): 0.255 µM | RARα Comments (RARα): Total | RARα Efficacy (RARα): 105%
